Test results from PubChem BioAssay AID2060908 (Molecular Pharmacology Branch, DTP, NCI, 2025).

Test system: 186277-243-T-J2-PDC complex spheroids, viability
Assay: Anticancer human tumor 186277-243-T-J2-PDC patient-derived colon adenocarcinoma cell line growth inhibition [RAS]
Details: for IC50: curve of first compound; for viability, T/C: stronger effect = lower value; active = viability on the fitted dose curve at most 10% of control; inactive = the rest
Procedure, shortened: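 Tumour cells grown as complex spheroids with HUVEC endothelial cells and mesenchymal stem cells, treated with RAS pathway inhibitor combinations. Each agent spans half-log steps from near clinical Cmax, or 10 microM where Cmax is unknown.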
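Also: spheroids exposed to compounds for 7 days before viability read.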

C=CC(=O)N1CCN(c2nc(OCC3CCCN3C)nc3c(F)c(-c4nc(N)cc(C)c4C(F)(F)F)c(Cl)cc23)C(C)C1 (centres undefined) + CCn1c(-c2cccnc2C(C)OC)c2c3cc(ccc31)N1CCOC(CC(NC(=O)C(C(C)C)N(C)C(=O)C3(F)CCN(C(=O)C#CC(C)(C)N(C)C)CC3)C(=O)N3CCCC(N3)C(=O)OCC(C)(C)C2)C1
> 1000 nM: IC50 (second compound 0.000949 µM) | IC50 (second compound 0.003 µM) | IC50 (second compound 0.00949 µM) | IC50 (second compound 0.03 µM) | IC50 (second compound 0.0949 µM) | IC50 (second compound 0.3 µM)
inactive: viability, T/C (second compound 0.000949 µM, first compound 0.00316 µM) 88.7% | viability, T/C (second compound 0.000949 µM, first compound 0.01 µM) 79% | viability, T/C (second compound 0.000949 µM, first compound 0.0316 µM) 89.2% | viability, T/C (second compound 0.000949 µM, first compound 0.1 µM) 80.8% | viability, T/C (second compound 0.000949 µM, first compound 0.316 µM) 95.6% | viability, T/C (second compound 0.000949 µM, first compound 1 µM) 96.6% | viability, T/C (second compound 0.003 µM, first compound 0.00316 µM) 88% | viability, T/C (second compound 0.003 µM, first compound 0.01 µM) 97.6% | viability, T/C (second compound 0.003 µM, first compound 0.0316 µM) 83.4% | viability, T/C (second compound 0.003 µM, first compound 0.1 µM) 102% | viability, T/C (second compound 0.003 µM, first compound 0.316 µM) 94.1% | viability, T/C (second compound 0.003 µM, first compound 1 µM) 111% | viability, T/C (second compound 0.00949 µM, first compound 0.00316 µM) 91.6% | viability, T/C (second compound 0.00949 µM, first compound 0.01 µM) 102% | viability, T/C (second compound 0.00949 µM, first compound 0.0316 µM) 104% | viability, T/C (second compound 0.00949 µM, first compound 0.1 µM) 106% | viability, T/C (second compound 0.00949 µM, first compound 0.316 µM) 98.6% | viability, T/C (second compound 0.00949 µM, first compound 1 µM) 98.3% | viability, T/C (second compound 0.03 µM, first compound 0.00316 µM) 81.4% | viability, T/C (second compound 0.03 µM, first compound 0.01 µM) 105% | viability, T/C (second compound 0.03 µM, first compound 0.0316 µM) 95.8% | viability, T/C (second compound 0.03 µM, first compound 0.1 µM) 107% | viability, T/C (second compound 0.03 µM, first compound 0.316 µM) 116% | viability, T/C (second compound 0.03 µM, first compound 1 µM) 91.7% | viability, T/C (second compound 0.0949 µM, first compound 0.00316 µM) 85.3% | viability, T/C (second compound 0.0949 µM, first compound 0.01 µM) 109% | viability, T/C (second compound 0.0949 µM, first compound 0.0316 µM) 121% | viability, T/C (second compound 0.0949 µM, first compound 0.1 µM) 106% | viability, T/C (second compound 0.0949 µM, first compound 0.316 µM) 95.6% | viability, T/C (second compound 0.0949 µM, first compound 1 µM) 93.7% | viability, T/C (second compound 0.3 µM, first compound 0.00316 µM) 98.2% | viability, T/C (second compound 0.3 µM, first compound 0.01 µM) 93.7% | viability, T/C (second compound 0.3 µM, first compound 0.0316 µM) 111% | viability, T/C (second compound 0.3 µM, first compound 0.1 µM) 97.5% | viability, T/C (second compound 0.3 µM, first compound 0.316 µM) 114% | viability, T/C (second compound 0.3 µM, first compound 1 µM) 99.7%

O=C(c1ccc(F)c(F)c1Nc1ccc(I)cc1F)N1CC(O)([C@@H]2CCCCN2)C1 + C=CC(=O)N1CCN(c2nc(OCC3CCCN3C)nc3c(F)c(-c4nc(N)cc(C)c4C(F)(F)F)c(Cl)cc23)C(C)C1
inactive: viability, T/C (second compound 0.00316 µM, first compound 0.00316 µM) 104% | viability, T/C (second compound 0.00316 µM, first compound 0.01 µM) 99.3% | viability, T/C (second compound 0.00316 µM, first compound 0.0316 µM) 59.9% | viability, T/C (second compound 0.00316 µM, first compound 0.1 µM) 34% | viability, T/C (second compound 0.00316 µM, first compound 0.316 µM) 12% | viability, T/C (second compound 0.01 µM, first compound 0.00316 µM) 93.8% | viability, T/C (second compound 0.01 µM, first compound 0.01 µM) 110% | viability, T/C (second compound 0.01 µM, first compound 0.0316 µM) 79.2% | viability, T/C (second compound 0.01 µM, first compound 0.1 µM) 30.4% | viability, T/C (second compound 0.0316 µM, first compound 0.00316 µM) 99.3% | viability, T/C (second compound 0.0316 µM, first compound 0.01 µM) 87.8% | viability, T/C (second compound 0.0316 µM, first compound 0.0316 µM) 78.1% | viability, T/C (second compound 0.0316 µM, first compound 0.1 µM) 35% | viability, T/C (second compound 0.0316 µM, first compound 0.316 µM) 12.1% | viability, T/C (second compound 0.1 µM, first compound 0.00316 µM) 75.7% | viability, T/C (second compound 0.1 µM, first compound 0.01 µM) 98% | viability, T/C (second compound 0.1 µM, first compound 0.0316 µM) 70.5% | viability, T/C (second compound 0.1 µM, first compound 0.1 µM) 42.8% | viability, T/C (second compound 0.1 µM, first compound 0.316 µM) 11.4% | viability, T/C (second compound 0.316 µM, first compound 0.00316 µM) 78.8% | viability, T/C (second compound 0.316 µM, first compound 0.01 µM) 92.2% | viability, T/C (second compound 0.316 µM, first compound 0.0316 µM) 93.8% | viability, T/C (second compound 0.316 µM, first compound 0.1 µM) 35.9% | viability, T/C (second compound 0.316 µM, first compound 0.316 µM) 13.3% | viability, T/C (second compound 0.316 µM, first compound 1 µM) 7.18% | viability, T/C (second compound 1 µM, first compound 0.00316 µM) 98.1% | viability, T/C (second compound 1 µM, first compound 0.01 µM) 96.8% | viability, T/C (second compound 1 µM, first compound 0.0316 µM) 82.6% | viability, T/C (second compound 1 µM, first compound 0.1 µM) 45.6% | viability, T/C (second compound 1 µM, first compound 0.316 µM) 13.2%
73.4 nM: IC50 (second compound 0.316 µM)
63.7 nM: IC50 (second compound 0.01 µM)
74.5 nM: IC50 (second compound 0.1 µM)
active: viability, T/C (second compound 0.00316 µM, first compound 1 µM) 5.96% | viability, T/C (second compound 0.01 µM, first compound 0.316 µM) 11.9% | viability, T/C (second compound 0.01 µM, first compound 1 µM) 5.44% | viability, T/C (second compound 0.0316 µM, first compound 1 µM) 5.54% | viability, T/C (second compound 0.1 µM, first compound 1 µM) 5.74% | viability, T/C (second compound 1 µM, first compound 1 µM) 6.57%
86.1 nM: IC50 (second compound 1 µM)
52.1 nM: IC50 (second compound 0.00316 µM)
66.9 nM: IC50 (second compound 0.0316 µM)
